Measurements published in paper PMC9503946 (Pharmaceuticals, 2022).
Values joined by “and” are separate entries in the source; they are usually repeats but may differ in a detail not shown here. Equal values may be shown once.

How the values were obtained:
[1] = biological target: recombinant SARS-CoV-1 nucleocapsid protein (Severe acute respiratory syndrome coronavirus, UniProt P59595); assay: biochemical; type: binding
A549 cells = conditions: 72 h; 0.003-100 µM
[2] = biological target: recombinant SARS-CoV-2 nucleocapsid protein (full-length NP, aa 1–419) (Severe acute respiratory syndrome coronavirus 2, UniProt P0DTC9); assay: biochemical; type: binding
MRC-5 cells = conditions: 72 h; 0.003-100 µM
in vitro = conditions: human

recombinant SARS-CoV-1 nucleocapsid protein, sequence (P59595 whole entry, looked up): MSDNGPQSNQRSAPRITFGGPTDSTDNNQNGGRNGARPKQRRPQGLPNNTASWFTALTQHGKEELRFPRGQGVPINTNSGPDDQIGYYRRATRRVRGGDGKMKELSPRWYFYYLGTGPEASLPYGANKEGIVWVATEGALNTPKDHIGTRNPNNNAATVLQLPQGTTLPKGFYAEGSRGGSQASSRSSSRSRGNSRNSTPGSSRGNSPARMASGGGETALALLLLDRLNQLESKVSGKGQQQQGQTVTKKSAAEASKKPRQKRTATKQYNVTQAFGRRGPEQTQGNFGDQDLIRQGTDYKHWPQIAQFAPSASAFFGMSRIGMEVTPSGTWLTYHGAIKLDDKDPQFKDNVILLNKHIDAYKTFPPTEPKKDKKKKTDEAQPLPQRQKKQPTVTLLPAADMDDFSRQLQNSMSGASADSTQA

Row | SMILES | Kd [1] | IC50 (cytotoxicity) (A549 cells) | Kd [2] | IC50 (cytotoxicity) (MRC-5 cells) | IC50 (in vitro)
1 | Cc1c(CC(=O)N2CCC3(O)CCCCC3C2)c(=O)oc2c(C)c3occ(-c4ccc5ccccc5c4)c3cc12 (stereo not drawn) [Compound 4, 6-[2-(4a-hydroxy-decahydroisoquinolin-2-yl)-2-oxoethyl]-5,9-dimethyl-3-(naphthalen-2-yl)-7H-furo[3,2-g]chromen-7-one] | 0.674 µM and < 1 µM | no toxicity |  |  | 
2 | Cc1c(CC(=O)N2CCC3(O)CCCCC3C2)c(=O)oc2cc3occ(-c4ccc5ccccc5c4)c3cc12 (stereo not drawn) [Compound 2, 6-[2-(4a-hydroxy-decahydroisoquinolin-2-yl)-2-oxoethyl]-5-methyl-3-(naphthalen-2-yl)-7H-furo [3,2-g]chromen-7-one] |  |  | 22.8 ± 1.52 µM |  | 
3 | Cc1ccc2ccccc2c1COc1ccc2c(C)c(CC(=O)N3CCC4(O)CCCCC4C3)c(=O)oc2c1C (stereo not drawn) [Compound 1, 3-[2-(4a-hydroxy-decahydroisoquinolin-2-yl)-2-oxoethyl]-4,8-dimethyl-7-[(2-methylnaphthalen-1-yl)methoxy]-2H-chromen-2-one] | 14.6 ± 0.44 µM |  |  | no toxicity | 51 ± 8.13 µM
